{"source": "patent US11932641B1", "about": "“Pyrido[4′,3′:4,5]pyrrolo[3,2-b][1,7]naphthyridine compounds as CK2 inhibitors” (KING FAISAL UNIVERSITY, priority 2023, dated 2024)", "key": {"PC3 (prostate)": {"system": "PC3 (prostate)", "experiment": "In vitro cytotoxic activity (MTT) assay, PC3", "assay_type": "cell-based", "conditions": "Homo sapiens, Prostate cell; PC3 (prostate) cells, 96 hours exposure; read-out: IC50, 50% inhibition of cell proliferation", "description": "(§1) Compounds 1-12 were screened for their in vitro cytotoxic activity utilizing a 3-(4,5-dimethyl-thiazol-2-yl)-2,5-diphenyltetrazolium bromide (MTT) assay against selected cancer human cell lines consisting of PC3 (prostate), HCT116 (colon), A375 (melanoma), H1299 (lung), MIAPaCa-2 (pancreas), HL60 (leukemia), MCF7 (breast), MDA-MB-231 (breast) (T. Mosmann, J. Immunol. Meth., 1983, 65, 55-63). The cells were cultured at 37° C. in RMPI1640 medium supplemented with 10% fetal bovine serum, 50 IU/mL penicillin, and 50 μg/mL streptomycin in a 5% CO2 incubator. All cells were sub-cultured 3 times/week by trypsinisation. Viable cells were seeded and allowed to adhere for 12 h before a test drug was added in 96-well plates at an initial density of 1.0×10^5 cells/mL. Tumour cell lines were separately exposed to various concentrations of the tested compounds followed by incubation at a temperature of 37° C. during 96 h inside a medium of fresh RMPI 1640. Cells were subsequently incubated at 37° C. using MTT at 0.5 mg/mL during 4 h. After removal of supernatant, formazan crystals were dissolved in isopropanol and the optical density was measured at 570 nm. CX-4945 was used as a positive control."}, "HCT116 (colon)": {"system": "HCT116 (colon)", "experiment": "In vitro cytotoxic activity (MTT) assay, HCT116", "assay_type": "cell-based", "conditions": "Homo sapiens, HCT-116; HCT116 (colon) cells, 96 hours exposure; read-out: IC50, 50% inhibition of cell proliferation", "description": "as §1"}, "A375 (melanoma)": {"system": "A375 (melanoma)", "experiment": "In vitro cytotoxic activity (MTT) assay, A375", "assay_type": "cell-based", "conditions": "Homo sapiens, A-375; A375 (melanoma) cells, 96 hours exposure; read-out: IC50, 50% inhibition of cell proliferation", "description": "as §1"}, "H1299 (lung)": {"system": "H1299 (lung)", "experiment": "In vitro cytotoxic activity (MTT) assay, H1299", "assay_type": "cell-based", "conditions": "Homo sapiens, NCI-H1299; H1299 (lung) cells, 96 hours exposure; read-out: IC50, 50% inhibition of cell proliferation", "description": "as §1"}, "MIAPaCa-2 (pancreas)": {"system": "MIAPaCa-2 (pancreas)", "experiment": "In vitro cytotoxic activity (MTT) assay, MIAPaCa-2", "assay_type": "cell-based", "conditions": "Homo sapiens, MIA PaCa-2; MIAPaCa-2 (pancreas) cells, 96 hours exposure; read-out: IC50, 50% inhibition of cell proliferation", "description": "as §1"}, "HL60 (leukemia)": {"system": "HL60 (leukemia)", "experiment": "In vitro cytotoxic activity (MTT) assay, HL60", "assay_type": "cell-based", "conditions": "Homo sapiens, HL-60; HL60 (leukemia) cells, 96 hours exposure; read-out: IC50, 50% inhibition of cell proliferation", "description": "as §1"}, "MCF7 (breast)": {"system": "MCF7 (breast)", "experiment": "In vitro cytotoxic activity (MTT) assay, MCF7", "assay_type": "cell-based", "conditions": "Homo sapiens; MCF7 (breast) cells, 96 hours exposure; read-out: IC50, 50% inhibition of cell proliferation", "description": "as §1"}, "MDA-MB-231 (breast)": {"system": "MDA-MB-231 (breast)", "experiment": "In vitro cytotoxic activity (MTT) assay, MDA-MB-231", "assay_type": "cell-based", "conditions": "Homo sapiens; MDA-MB-231 (breast) cells, 96 hours exposure; read-out: IC50, 50% inhibition of cell proliferation", "description": "as §1"}, "[1]": {"target": "T1, recombinant human CK2 (RRββ-holoenzyme) (Homo sapiens, UniProt P68400)", "T1 construct": "purchased Millipore", "T1 sequence (P68400 whole entry)": "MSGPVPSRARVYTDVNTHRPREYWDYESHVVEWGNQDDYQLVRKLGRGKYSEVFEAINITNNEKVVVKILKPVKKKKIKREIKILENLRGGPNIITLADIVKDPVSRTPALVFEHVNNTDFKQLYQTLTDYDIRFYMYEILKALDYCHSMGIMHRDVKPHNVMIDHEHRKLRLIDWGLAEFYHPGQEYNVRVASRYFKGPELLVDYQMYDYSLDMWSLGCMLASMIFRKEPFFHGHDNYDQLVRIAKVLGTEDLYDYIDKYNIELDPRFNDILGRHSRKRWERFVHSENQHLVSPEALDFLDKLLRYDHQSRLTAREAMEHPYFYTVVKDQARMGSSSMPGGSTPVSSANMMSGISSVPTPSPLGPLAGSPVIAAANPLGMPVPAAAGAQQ", "T1 sequence (P67870 whole entry partner)": "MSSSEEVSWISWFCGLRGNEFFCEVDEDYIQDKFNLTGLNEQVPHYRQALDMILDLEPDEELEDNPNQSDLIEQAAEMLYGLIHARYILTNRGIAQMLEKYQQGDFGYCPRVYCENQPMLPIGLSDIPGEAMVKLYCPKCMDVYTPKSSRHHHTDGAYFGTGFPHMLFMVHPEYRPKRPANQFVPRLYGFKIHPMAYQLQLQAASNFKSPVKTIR", "experiment": "CK2 kinase assay (33P-ATP, filter plate)", "assay_type": "biochemical", "conditions": "final ATP 15 μM, 10 min at 30° C.; read-out: protein kinase CK2 IC50", "description": "CK2 Kinase Assay was conducted using the protocol as described in Pierre F. et al; J. Med Chem. 2011, 54, 635-654. The tested compounds in aqueous solution were added at a volume of 10 μL to a reaction mixture comprising 10 μL of assay dilution buffer (ADB; 20 mM MOPS, pH 7.2, 25 mM β-glycerol phosphate, 5 mM EGTA, 1 mM sodium orthovanadate, and 1 mM dithiothreitol), 10 μL of substrate peptide (RRRDDDSDDD, dissolved in ADB at a concentration of 1 mM), 10 μL of recombinant human CK2 (RRββ-holoenzyme, 25 ng dissolved in ADB; Millipore). Reactions were initiated by the addition of 10 μL of ATP solution (90% 75 mMMgCl2, 75 μM ATP (final ATP concentration: 15 μM) dissolved in ADB; 10% [γ-33P] ATP (stock 1 mCi/100 μL; 3000 Ci/mmol (Perkin-Elmer) and maintained for 10 min at 30° C. The reactions were quenched with 100 μL of 0.75% phosphoric acid and then transferred to and filtered through a phosphor cellulose filter plate (Millipore). After washing each well five times with 0.75% phosphoric acid, the plate was dried under vacuum for 5 min and, following the addition of 15 μL of scintillation fluid to each well, the residual radioactivity was measured using a Wallac […]. The IC50 values were derived from eight concentrations of test inhibitors."}}}
{"smiles": "Clc1ccc(Nc2c3ccncc3nc3c2[nH]c2cnccc23)cc1", "note": "[Compound 1, N-(4-chlorophenyl)-11H-pyrido[4′,3′:4,5]pyrrolo[3,2-b][1,7]naphthyridin-10-amine]", "values": [{"measurement": "IC50", "setting": "PC3 (prostate)", "value": 1.3, "unit": "µM"}, {"measurement": "IC50", "setting": "HCT116 (colon)", "value": 1.5, "unit": "µM"}, {"measurement": "IC50", "setting": "A375 (melanoma)", "value": 3.4, "unit": "µM"}, {"measurement": "IC50", "setting": "H1299 (lung)", "value": 2.4, "unit": "µM"}, {"measurement": "IC50", "setting": "MIAPaCa-2 (pancreas)", "value": 1.6, "unit": "µM"}, {"measurement": "IC50", "setting": "HL60 (leukemia)", "value": 3.1, "unit": "µM"}, {"measurement": "IC50", "setting": "MCF7 (breast)", "value": 8.5, "unit": "µM"}, {"measurement": "IC50", "setting": "MDA-MB-231 (breast)", "value": 5.2, "unit": "µM"}, {"measurement": "IC50", "setting": "[1]", "value": 0.005, "unit": "µM"}]}
